pIC50: −log10 of the molar value.
Test system: 192522-019-R-J2-PDC complex tumor spheroid viability
Assay: Anticancer human tumor 192522-019-R-J2-PDC patient-derived colon adenocarcinoma cell line growth inhibition [POLQ]
Settings: for pIC50: curve of first compound; for viability, T/C: stronger effect = lower value
Method in brief: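 Patient-derived tumour cells were co-cultured with HUVEC and mesenchymal stem cells as multicellular spheroids at 37 °C. They were treated with POLQ inhibitors (novobiocin, ART-558, RP6685) alone or combined with other agents. Top concentrations were at or near clinical Cmax (otherwise 10 microM; SN-38 at 1 microM), decreasing in half-log steps.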

[1] = second compound 0.0316 µM, first compound 0.0316 µM
[2] = second compound 0.0316 µM, first compound 0.1 µM
[3] = second compound 0.0316 µM, first compound 0.316 µM
[4] = second compound 0.0316 µM, first compound 1 µM
[5] = second compound 0.0316 µM, first compound 3.16 µM
[6] = second compound 0.0316 µM, first compound 10 µM
[7] = second compound 0.1 µM, first compound 0.0316 µM
[8] = second compound 0.1 µM, first compound 0.1 µM
[9] = second compound 0.1 µM, first compound 0.316 µM
[10] = second compound 0.1 µM, first compound 1 µM
[11] = second compound 0.1 µM, first compound 3.16 µM
[12] = second compound 0.1 µM, first compound 10 µM
[13] = second compound 0.316 µM, first compound 0.0316 µM
[14] = second compound 0.316 µM, first compound 0.1 µM
[15] = second compound 0.316 µM, first compound 0.316 µM
[16] = second compound 0.316 µM, first compound 1 µM
[17] = second compound 0.316 µM, first compound 3.16 µM
[18] = second compound 0.316 µM, first compound 10 µM
[19] = second compound 1 µM, first compound 0.0316 µM
[20] = second compound 1 µM, first compound 0.1 µM
[21] = second compound 1 µM, first compound 0.316 µM
[22] = second compound 1 µM, first compound 1 µM
[23] = second compound 1 µM, first compound 3.16 µM
[24] = second compound 1 µM, first compound 10 µM
[25] = second compound 3.16 µM, first compound 0.0316 µM
[26] = second compound 3.16 µM, first compound 0.1 µM
[27] = second compound 3.16 µM, first compound 0.316 µM
[28] = second compound 3.16 µM, first compound 1 µM
[29] = second compound 3.16 µM, first compound 3.16 µM
[30] = second compound 3.16 µM, first compound 10 µM
[31] = second compound 10 µM, first compound 0.0316 µM
[32] = second compound 10 µM, first compound 0.1 µM
[33] = second compound 10 µM, first compound 0.316 µM
[34] = second compound 10 µM, first compound 1 µM
[35] = second compound 10 µM, first compound 3.16 µM
[36] = second compound 10 µM, first compound 10 µM
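Further: spheroids exposed to drugs for seven days before reading.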
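Wherever viability, T/C is given: 100% = DMSO vehicle control viability in luminescence.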

C#Cc1c(F)ccc2cc(O)cc(-c3ncc4c(N5CC6CCC(C5)N6)nc(OCC56CCCN5CC(F)C6)nc4c3F)c12 (centres undefined) + Cc1cccc(N(C)C(=O)C2C(O)CCN2c2nc(C)cc(C(F)(F)F)c2C#N)c1
pIC50 (second compound 0.0316 µM): < 5.00 | pIC50 (second compound 0.1 µM): < 5.00 | pIC50 (second compound 0.316 µM): < 5.00 | pIC50 (second compound 1 µM): < 5.00 | pIC50 (second compound 3.16 µM): < 5.00 | pIC50 (second compound 10 µM): < 5.00 | viability, T/C [1]: 102% | viability, T/C [2]: 78.8% | viability, T/C [3]: 78.5% | viability, T/C [4]: 82.1% | viability, T/C [5]: 76.5% | viability, T/C [6]: 66.5% | viability, T/C [7]: 103% | viability, T/C [8]: 86.2% | viability, T/C [9]: 91.1% | viability, T/C [10]: 76% | viability, T/C [11]: 73.4% | viability, T/C [12]: 70.4% | viability, T/C [13]: 95% | viability, T/C [14]: 87.8% | viability, T/C [15]: 88.3% | viability, T/C [16]: 79.4% | viability, T/C [17]: 79.3% | viability, T/C [18]: 72.8% | viability, T/C [19]: 91.8% | viability, T/C [20]: 91.4% | viability, T/C [21]: 95% | viability, T/C [22]: 88.5% | viability, T/C [23]: 77.7% | viability, T/C [24]: 79.1% | viability, T/C [25]: 98.7% | viability, T/C [26]: 107% | viability, T/C [27]: 94.2% | viability, T/C [28]: 83% | viability, T/C [29]: 84.5% | viability, T/C [30]: 73.3% | viability, T/C [31]: 117% | viability, T/C [32]: 96.7% | viability, T/C [33]: 89.6% | viability, T/C [34]: 78.2% | viability, T/C [35]: 88.1% | viability, T/C [36]: 73.4%

CC1COCCN1c1cc(C2(O)CC3CCC(C2)O3)c2cnn(-c3ccn[nH]3)c2n1 (centres undefined) + Cc1cccc(N(C)C(=O)C2C(O)CCN2c2nc(C)cc(C(F)(F)F)c2C#N)c1
pIC50 (second compound 0.0316 µM): 6.60 | pIC50 (second compound 0.1 µM): 6.59 | pIC50 (second compound 0.316 µM): 6.53 | pIC50 (second compound 1 µM): 6.33 | pIC50 (second compound 3.16 µM): 6.26 | pIC50 (second compound 10 µM): 6.54 | viability, T/C [1]: 117% | viability, T/C [2]: 70.1% | viability, T/C [3]: 47.8% | viability, T/C [4]: 29.2% | viability, T/C [5]: 43.7% | viability, T/C [6]: 46.3% | viability, T/C [7]: 95.8% | viability, T/C [8]: 73.1% | viability, T/C [9]: 42% | viability, T/C [10]: 35.9% | viability, T/C [11]: 37.3% | viability, T/C [12]: 64.2% | viability, T/C [13]: 101% | viability, T/C [14]: 82.9% | viability, T/C [15]: 49.2% | viability, T/C [16]: 33.8% | viability, T/C [17]: 43.5% | viability, T/C [18]: 52.3% | viability, T/C [19]: 94.1% | viability, T/C [20]: 85.5% | viability, T/C [21]: 54.8% | viability, T/C [22]: 34.5% | viability, T/C [23]: 38.6% | viability, T/C [24]: 54.3% | viability, T/C [25]: 98.3% | viability, T/C [26]: 89.3% | viability, T/C [27]: 55.1% | viability, T/C [28]: 32.1% | viability, T/C [29]: 46.8% | viability, T/C [30]: 56.8% | viability, T/C [31]: 102% | viability, T/C [32]: 78.1% | viability, T/C [33]: 48.8% | viability, T/C [34]: 32.8% | viability, T/C [35]: 51.7% | viability, T/C [36]: 50%

From PubChem BioAssay AID1963850 (Molecular Pharmacology Branch, DTP, NCI, 2024)
